Laboratory results reported in ChEMBL document CHEMBL4811284, “Tellurides bearing benzensulfonamide as carbonic anhydrase inhibitors with potent antitumor activity” (Bioorg Med Chem Lett, 2021).

How the values were obtained:
Carbonic anhydrase 9 = Carbonic anhydrase 9 (Homo sapiens, UniProt Q16790); assay: Inhibition of recombinant human CA9 preincubated for 15 mins by measured for 10 to 100 secs by phenol red dye based stopped flow CO2 hydration assay
MDA-MB-231 [1] = assay: Cytotoxicity against human MDA-MB-231 cells assessed as cell killing under hypoxia conditions at 10 uM measured after 48 hrs relative to control; format: functional
MDA-MB-231 [2] = assay: Cytotoxicity against human MDA-MB-231 cells assessed as cell killing under hypoxia conditions at 1 uM measured after 48 hrs relative to control; format: functional
MDA-MB-231 [3] = assay: Cytotoxicity against human MDA-MB-231 cells assessed as cell viability at 1 uM measured under normoxic condition after 48 hrs relative to control; format: functional; details: read-out: Activity
MDA-MB-231 [4] = assay: Cytotoxicity against human MDA-MB-231 cells assessed as cell viability at 10 uM measured under normoxic condition after 48 hrs relative to control; format: functional; details: read-out: Activity
MDA-MB-231 [5] = assay: Cytotoxicity against human MDA-MB-231 cells assessed as cell viability under hypoxia conditions at 1 uM measured after 48 hrs relative to control; format: functional
MDA-MB-231 [6] = assay: Cytotoxicity against human MDA-MB-231 cells assessed as cell viability under hypoxia conditions at 10 uM measured after 48 hrs relative to control; format: functional
MDA-MB-231 [7] = assay: Cytotoxicity against human MDA-MB-231 cells assessed as cell killing at 1 uM measured under normoxic condition after 48 hrs relative to control; format: functional

Work on `COc1cc([Te]Cc2ccc(S(N)(=O)=O)cc2)cc(OC)c1OC` yielded a Ki (Carbonic anhydrase 9) of 2.4 nM, an Activity (MDA-MB-231 [1]) of 85% and an Activity (MDA-MB-231 [2]) of 65%. For the same compound, the viability at 1 µM (MDA-MB-231 [3]) was 18% and the viability at 10 µM (MDA-MB-231 [4]) was 3%.
In the case of `Cc1ccccc1[Te]Cc1ccc(S(N)(=O)=O)cc1`, the Ki (Carbonic anhydrase 9) is reported as 2.6 nM.
In the case of `Cc1cccc(C)c1[Te]Cc1ccc(S(N)(=O)=O)cc1`, the Ki (Carbonic anhydrase 9) is reported as 2.5 nM.
`NS(=O)(=O)c1ccc(C[Te]c2ccccc2)cc1` showed a Ki (Carbonic anhydrase 9) of 2.4 nM, an Activity (MDA-MB-231 [5]) of 16% and an Activity (MDA-MB-231 [6]) of 13%. It also gave an Activity (MDA-MB-231 [7]) of 90% and a viability at 10 µM (MDA-MB-231 [4]) of 5%.
`NS(=O)(=O)c1ccc(C[Te]c2ccc3ccccc3c2)cc1` gave a Ki (Carbonic anhydrase 9) of 2.9 nM.
Work on `Cc1ccc([Te]Cc2ccc(S(N)(=O)=O)cc2)cc1` yielded a Ki (Carbonic anhydrase 9) of 2.2 nM.
In the case of `COc1ccc([Te]Cc2ccc(S(N)(=O)=O)cc2)cc1`, the Ki (Carbonic anhydrase 9) is reported as 2.6 nM.
